Laboratory results published in EPA's ToxValDB 9.5 (doi:10.2903/j.efsa.2009.204r).
In brackets after ≈: the same amount, converted by molar mass.

Key:
Typhlodromus pyri = experiment: LR50; higher = less toxic; conditions: acute; duration: 7 days; mortality
Folsomia candida = conditions: chronic/long-term; duration: 28 days
Daphnia magna = conditions: chronic/long-term; duration: 21 days; reproduction
Cyprinus carpio = conditions: acute; duration: 96 hours; mortality
Apis mellifera = conditions: acute; duration: 48 hours; oral; unspecified; mortality
Anas platyrhynchos = conditions: short-term; oral; feed; mortality
Mus musculus = conditions: oral
Oncorhynchus mykiss = conditions: chronic/long-term; duration: 28 days; growth

SMILES: CC(C)=NOCCOC(=O)[C@@H](C)Oc1ccc(Oc2cnc3cc(Cl)ccc3n2)cc1 [Propaquizafop]
- LR50 (Typhlodromus pyri): > 1.4 g/ha
- NOEC (Folsomia candida): 5.4 mg/kg
- NOEC (Daphnia magna): 0.44 mg/L
- LC50 (Cyprinus carpio): 0.19 µg/mL (≈ 0.428 µM)
- NOAEL (Rattus norvegicus; reproduction developmental, reproduction): 15 mg/kg-day
- NOAEL (Rattus norvegicus; subchronic, duration: 90 days, oral): 6.25 mg/kg-day
- LD50 (Apis mellifera): > 20 µg/piece
- LC50 (Anas platyrhynchos): > 827 mg/kg-day
- LD50 (Colinus virginianus; acute, oral, mortality): > 2000 mg/kg
- NOEC (Colinus virginianus; reproduction developmental): ≥ 20.2 mg/kg-day
- LD50 (Mus musculus; acute, mortality): 3010 mg/kg
- NOAEL (Mus musculus; chronic, duration: 18 months, clinical chemistry): 1.5 mg/kg-day
- LC50 (Tagia sp.; acute, mortality): > 1000 mg/kg
- NOEC (Tagia sp.; chronic/long-term, duration: 56 days): 3.9 mg/kg
- NOEC (Oncorhynchus mykiss): 0.019 mg/L
